Target: Retinol-binding protein 4 (Homo sapiens, UniProt P02753)
Experiment: Scintillation Proximity RBP4 Binding Assay
Experimental: Untagged human RBP4 purified from the urine of tubular proteinuria patients was purchased from Fitzgerald Industries International. It was biotinylated using the EZ-Link Sulfo-NHS-LC-Biotinylation kit from Pierce following the manufacturer's recommendations. […] Nonspecific binding was determined in the presence of 20 μM of unlabeled retinol. The reaction mix was assembled in the dark under dim red light. The plates were sealed with clear tape (TopSeal-A: 96-well microplate, PerkinElmer), wrapped in the aluminum foil, and allowed to equilibrate 6 hours at room temperature followed by overnight incubation at +4° C. Radiocounts were measured using a TopCount NXT counter (Packard Instrument Company).

| IC50 | SMILES |
| --- | --- |
| > 3 µM | O=C(c1c[nH]c2ccncc12)N1C[C@H]2C[C@@H](c3ccccc3C(F)(F)F)C[C@H]2C1 [US12168664, Compound 8b] |
| > 3 µM | O=C(c1c[nH]c2cnccc12)N1C[C@H]2C[C@@H](c3ccccc3C(F)(F)F)C[C@H]2C1 [US12168664, Compound 8a] |

— BindingDB's records for patent US12168664 (Columbia University, 2024)
